Each structure is given as a SMILES string. A value given as a limit tells only on which side of the number the result lay.

The subject of experiment [1] is A431 cells (human epidermoid carcinoma). Put plainly: In vitro tumor cell proliferation assay (Cell Titer-Glo luminescent cell viability), A431. Format: cell-based. The conditions noted are these: A-431, 72 h, 72 hours of drug exposure, ATP luminescence readout, read-out: IC50, anti-proliferative activity (inhibition of cell proliferation). An outline of the steps:
(§1)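 A431 or BT474 cells were exposed 72 h at 37°C to serially diluted compounds (final 100 μM down to 64 pM, 0.1% DMSO). Viable cells were read by ATP luminescence (CellTiter-Glo) and IC50 values derived.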
On the technique in general: In ATP-based viability assays light output follows the ATP content of the culture.

For experiment [2], the system named is BT474 (human breast carcinoma). Put plainly: In vitro tumor cell proliferation assay (Cell Titer-Glo luminescent cell viability), BT474. The format is cell-based. The following applies: BT-474, 72 h, BT474 cells, 72 hours of drug exposure, ATP luminescence readout, read-out: IC50, anti-proliferative activity (inhibition of cell proliferation). An outline of the steps:
as §1

As to `c1ccc(Cn2ncc3cc(Nc4ncnc5sc6c(c45)CCc4nn(CCN5CCOCC5)cc4-6)ccc32)cc1` [Example 304, N-(1-benzyl-1H-indazol-5-yl)-2-(2-morpholin-4-ylethyl)-4,5-dihydro-2H-pyrimido[5′,4′:4,5]thieno[2,3-e]indazol-6-amine], the results for the IC50 in experiment [1] and in experiment [2] were at most 50 µM and at most 1 µM, respectively.
The like results for `CCN1CCN(CCn2cc3c(n2)CCc2c-3sc3ncnc(Nc4ccc5c(cnn5Cc5ccccc5)c4)c23)CC1` [Example 305, N-(1-benzyl-1H-indazol-5-yl)-2-[2 (4-ethylpiperazin-1-yl)ethyl]-4,5-dihydro-2H-pyrimido[5′,4′:4,5]thieno[2,3-e]indazol-6-amine] were, in that order, at most 5 µM and at most 1 µM.
The like results for `CS(=O)(=O)CCNCCn1cc2c(n1)CCc1c-2sc2ncnc(Nc3ccc4c(cnn4Cc4ccccc4)c3)c12` [Example 307, N-(1-benzyl-1H-indazol-5-yl)-2-(2-{[2-(methylsulfonyl)ethyl]amino}ethyl)-4,5-dihydro-2H-pyrimido[5′,4′:4,5]thieno[2,3-e]indazol-6-amine] were, in that order, at most 50 µM and at most 1 µM.
The like results for `COCCN1CCN(CCn2cc3c(n2)CCc2c-3sc3ncnc(Nc4ccc5c(cnn5Cc5ccccc5)c4)c23)CC1` [Example 308, N-(1-benzyl-1H-indazol-5-yl)-2-{2-[4-(2-methoxyethyl)piperazin-1-yl]ethyl}-4,5-dihydro-2H-pyrimido[5′,4′:4,5]thieno[2,3-e]indazol-6-amine] were, in that order, at most 50 µM and at most 1 µM.
For `c1ccc(Cn2ncc3cc(Nc4ncnc5sc6c(c45)CCc4n[nH]cc4-6)ccc32)cc1` [Example 309, N-(1-benzyl-1H-indazol-5-yl)-4,5-dihydro-2H-pyrimido[5′,4′:4,5]thieno[2,3-e]indazol-6-amine], the IC50 is at most 5 µM in experiment [1] and at most 1 µM in experiment [2].
For `OCCn1ncc2c1CCc1c-2sc2ncnc(Nc3ccc4c(cnn4Cc4ccccc4)c3)c12` [Example 310, 2-{6-[(1-benzyl-1H-indazol-5-yl)amino]-4,5-dihydro-3H-pyrimido[5′,4′:4,5]thieno[2,3-e]indazol-3-yl}ethanol], the figures for the IC50 in experiment [1] and in experiment [2] were at most 5 µM and at most 1 µM, respectively.
The like results for `NS(=O)(=O)OCCn1cc2c(n1)CCc1c-2sc2ncnc(Nc3ccc(OCc4cccc(F)c4)c(Cl)c3)c12` [Example 311, 2-[6-({3-chloro-4-[(3-fluorobenzyl)oxy]phenyl}amino)-4,5-dihydro-2H-pyrimido[5′,4′:4,5]thieno[2,3-e]indazol-2-yl]ethyl sulfamate] were, in that order, at most 50 µM and at most 1 µM.
Regarding `COCCn1cc2c(n1)CCc1c-2sc2ncnc(Nc3ccc(OCc4cccc(F)c4)c(Cl)c3)c12` [Example 312, N-{3-chloro-4-[(3-fluorobenzyl)oxy]phenyl}-2-(2-methoxyethyl)-4,5-dihydro-2H-pyrimido[5′,4′:4,5]thieno[2,3-e]indazol-6-amine], the IC50 in experiment [1] was at most 50 µM; in experiment [2] it was at most 5 µM.
In the case of `CC(C)(C)OC(=O)NCC(=O)OCCn1cc2c(n1)CCc1c-2sc2ncnc(Nc3ccc(OCc4cccc(F)c4)c(Cl)c3)c12` [Example 314, 2-[6-({3-chloro-4-[(3-fluorobenzyl)oxy]phenyl}amino)-4,5-dihydro-2H-pyrimido[5′,4′:4,5]thieno[2,3-e]indazol-2-yl]ethyl N-(tert-butoxycarbonyl)glycinate], the IC50 in experiment [1] was at most 5 µM; in experiment [2], at most 1 µM.
With `NCC(=O)OCCn1cc2c(n1)CCc1c-2sc2ncnc(Nc3ccc(OCc4cccc(F)c4)c(Cl)c3)c12` [Example 315, 2-[6-({3-chloro-4-[(3-fluorobenzyl)oxy]phenyl}amino)-4,5-dihydro-2H-pyrimido[5′,4′:4,5]thieno[2,3-e]indazol-2-yl]ethyl glycinate], the IC50 in experiment [1] is at most 5 µM; in experiment [2], at most 1 µM.

(Values after patent US8207172B2 (Bayer Intellectual Property GmbH, priority 2004, dated 2012).)
